Assay results as given in ChEMBL document CHEMBL3616421, “Discovery of novel isatin-dehydroepiandrosterone conjugates as potential anticancer agents” (Bioorg Med Chem Lett, 2015).
The source made the active and inactive calls. No cut-off for these calls is given here.

Tests used:
Assay type in all cases: functional, cell-based
HepG2 [1] = assay: Cytotoxicity against human HepG2 cells assessed as growth inhibition after 72 hrs by MTT assay; conditions: for IC50: HepG2, 72 h
[2] = (§1) Cytotoxicity against human HuH7 cells assessed as growth inhibition after 72 hrs by MTT assay; conditions: Huh-7, 72 h
Huh-7 = assay: as §1
[3] = (§2) Cytotoxicity against human A875 cells assessed as growth inhibition after 72 hrs by MTT assay; conditions: A875, 72 h
A875 = assay: as §2
[4] = Cytotoxicity against 5-fluorouracil-resistant human Bel7402 cells assessed as growth inhibition after 72 hrs by MTT assay; conditions: Bel-7402, 72 h
HepG2 [5] = assay: Cytotoxicity against human HepG2 cells assessed as decrease in cell level at 10 ug/ml after 48 hrs by inverted microscopic analysis
HepG2 [6] = assay: Cytotoxicity against human HepG2 cells assessed as cell shrinkage at 10 ug/ml after 48 hrs by inverted microscopic analysis

C[C@]12CC[C@H](O)CC1=CC[C@@H]1[C@@H]2CC[C@]2(C)/C(=N/N=C3\C(=O)Nc4cc(F)ccc43)CC[C@@H]12
growth inhibition (GI) (HepG2 [1]): Dose-dependent effect | IC50 (HepG2 [1]): 19.7 µM | IC50 [2]: 22.3 µM | growth inhibition (GI) (Huh-7): Dose-dependent effect | IC50 [3]: 29.6 µM | growth inhibition (GI) (A875): Dose-dependent effect | IC50 [4]: 12.8 µM

CC(C)c1ccc(/N=C2\CC[C@H]3[C@@H]4CC=C5C[C@@H](O)CC[C@]5(C)[C@H]4CC[C@]23C)cc1
IC50 (HepG2 [1]): 44.3 µM | IC50 [2]: > 90 µM | IC50 [3]: 61.5 µM | IC50 [4]: > 90 µM

C[C@]12CC[C@H](O)CC1=CC[C@@H]1[C@@H]2CC[C@]2(C)/C(=N/Cc3ccccc3)CC[C@@H]12
IC50 (HepG2 [1]): 32.6 µM | IC50 [2]: > 100 µM | IC50 [3]: 42.5 µM | IC50 [4]: > 100 µM

C[C@]12CC[C@H](O)CC1=CC[C@@H]1[C@@H]2CC[C@]2(C)/C(=N/c3ccccc3)CC[C@@H]12
IC50 (HepG2 [1]): 63.5 µM | IC50 [2]: > 100 µM | IC50 [3]: 82.7 µM | IC50 [4]: > 100 µM

C[C@]12CC[C@H](O)CC1=CC[C@@H]1[C@@H]2CC[C@]2(C)/C(=N/N=C3\C(=O)Nc4ccc(Br)cc43)CC[C@@H]12
growth inhibition (GI) (HepG2 [1]): Dose-dependent effect | IC50 (HepG2 [1]): 16.2 µM | IC50 [2]: 13.9 µM | growth inhibition (GI) (Huh-7): Dose-dependent effect | IC50 [3]: 14.8 µM | growth inhibition (GI) (A875): Dose-dependent effect | IC50 [4]: 5.97 µM | Activity (HepG2 [5]): Active | Activity (HepG2 [6]): Active

C[C@]12CC[C@H](O)CC1=CC[C@@H]1[C@@H]2CC[C@]2(C)/C(=N/N=C3\C(=O)Nc4ccc([N+](=O)[O-])cc43)CC[C@@H]12
IC50 (HepG2 [1]): 27.4 µM | IC50 [2]: 30.6 µM | IC50 [3]: 69 µM | IC50 [4]: 10.1 µM

C[C@]12CC[C@H](O)CC1=CC[C@@H]1[C@@H]2CC[C@]2(C)/C(=N/Nc3ccccc3)CC[C@@H]12
IC50 (HepG2 [1]): 43.1 µM | IC50 [2]: 55.4 µM | IC50 [3]: > 100 µM | IC50 [4]: 29.9 µM

C[C@]12CC[C@H](O)CC1=CC[C@@H]1[C@@H]2CC[C@]2(C)/C(=N/Nc3ncccc3Cl)CC[C@@H]12
IC50 (HepG2 [1]): > 90 µM | IC50 [2]: > 90 µM | IC50 [3]: > 90 µM

O=c1[nH]cc(F)c(=O)[nH]1 [FLUOROURACIL]
growth inhibition (GI) (HepG2 [1]): Dose-dependent effect | IC50 (HepG2 [1]): > 150 µM | IC50 [2]: > 100 µM | growth inhibition (GI) (Huh-7): Dose-dependent effect | IC50 [3]: > 150 µM | growth inhibition (GI) (A875): Dose-dependent effect | IC50 [4]: > 700 µM

C[C@]12CC[C@H](O)CC1=CC[C@@H]1[C@@H]2CC[C@]2(C)/C(=N/N=C3\C(=O)Nc4ccc(I)cc43)CC[C@@H]12
IC50 (HepG2 [1]): 22.5 µM | IC50 [2]: > 70 µM | IC50 [3]: 43.7 µM | IC50 [4]: 14.1 µM

C[C@]12CC[C@H](O)CC1=CC[C@@H]1[C@@H]2CC[C@]2(C)/C(=N/N=C3\C(=O)Nc4ccccc43)CC[C@@H]12
growth inhibition (GI) (HepG2 [1]): Dose-dependent effect | IC50 (HepG2 [1]): 13.3 µM | IC50 [2]: 28.2 µM | growth inhibition (GI) (Huh-7): Dose-dependent effect | IC50 [3]: 25.2 µM | growth inhibition (GI) (A875): Dose-dependent effect | IC50 [4]: 21.8 µM | Activity (HepG2 [5]): Active | Activity (HepG2 [6]): Active
